Laboratory results as given in US8283361B2 (AstraZeneca AB, priority 2008, dated 2012).

Target: S. aureus GyrB ATPase (Staphylococcus aureus, UniProt P0A0K8)
Test: biochemical
Settings: compound at 1 μM; one value per test if tested more than once; read-out: % Inhibition of S. aureus GyrB ATPase
How it was run: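 IC50 values derive from 10-point titrations of compound (in DMSO). Phosphate formed from 250 μM ATP was quantified by acidic molybdate/malachite green after quenching.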

S. aureus GyrB ATPase, sequence (P0A0K8 whole entry): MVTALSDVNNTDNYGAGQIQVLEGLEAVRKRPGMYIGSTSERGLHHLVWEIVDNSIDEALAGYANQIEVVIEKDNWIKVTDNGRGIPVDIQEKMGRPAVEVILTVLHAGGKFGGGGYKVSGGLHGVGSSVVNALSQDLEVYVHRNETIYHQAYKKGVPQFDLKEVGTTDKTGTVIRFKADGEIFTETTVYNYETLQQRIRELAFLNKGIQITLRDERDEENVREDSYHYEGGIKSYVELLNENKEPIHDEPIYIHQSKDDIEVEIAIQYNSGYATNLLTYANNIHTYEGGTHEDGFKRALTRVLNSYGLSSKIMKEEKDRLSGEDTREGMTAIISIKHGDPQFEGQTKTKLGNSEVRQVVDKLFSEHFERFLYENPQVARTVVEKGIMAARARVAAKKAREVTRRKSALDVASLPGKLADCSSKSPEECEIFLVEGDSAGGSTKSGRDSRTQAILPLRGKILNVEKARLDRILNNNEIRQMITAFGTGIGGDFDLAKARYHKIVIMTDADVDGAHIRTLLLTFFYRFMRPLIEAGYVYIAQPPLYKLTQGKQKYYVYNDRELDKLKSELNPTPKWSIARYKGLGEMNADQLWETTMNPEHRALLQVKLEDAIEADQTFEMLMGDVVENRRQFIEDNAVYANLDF
S. aureus GyrB ATPase, sequence (P0AES4 whole entry, further chain): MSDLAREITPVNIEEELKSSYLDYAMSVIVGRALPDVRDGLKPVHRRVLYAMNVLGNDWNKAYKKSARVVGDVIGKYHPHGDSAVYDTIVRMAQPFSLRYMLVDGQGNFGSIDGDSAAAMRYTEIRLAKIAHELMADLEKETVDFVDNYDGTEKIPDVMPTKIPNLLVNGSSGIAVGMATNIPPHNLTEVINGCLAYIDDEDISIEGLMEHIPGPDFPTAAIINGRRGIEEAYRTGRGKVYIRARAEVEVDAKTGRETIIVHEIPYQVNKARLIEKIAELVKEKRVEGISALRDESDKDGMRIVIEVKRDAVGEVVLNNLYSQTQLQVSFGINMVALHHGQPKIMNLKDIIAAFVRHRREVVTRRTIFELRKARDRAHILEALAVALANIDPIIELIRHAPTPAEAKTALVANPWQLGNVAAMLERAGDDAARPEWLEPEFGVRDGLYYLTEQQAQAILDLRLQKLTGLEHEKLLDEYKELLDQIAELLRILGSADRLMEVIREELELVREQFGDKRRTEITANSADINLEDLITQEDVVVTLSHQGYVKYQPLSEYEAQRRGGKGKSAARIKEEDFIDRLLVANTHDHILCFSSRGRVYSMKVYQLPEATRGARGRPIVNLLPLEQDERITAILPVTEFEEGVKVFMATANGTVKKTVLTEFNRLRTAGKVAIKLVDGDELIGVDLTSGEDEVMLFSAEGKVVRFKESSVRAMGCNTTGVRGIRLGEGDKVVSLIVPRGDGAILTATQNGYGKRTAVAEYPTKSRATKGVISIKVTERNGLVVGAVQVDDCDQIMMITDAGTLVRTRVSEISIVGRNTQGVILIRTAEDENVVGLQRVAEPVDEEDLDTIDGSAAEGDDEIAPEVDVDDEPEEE

| Structure (SMILES) | inhibition at 1 µM [%] |
| --- | --- |
| CCNC(=O)Nc1cc(-c2nc(C(F)(F)F)cs2)c(-c2ccc3c(=O)c(C(=O)NC)cn(CCC(C)C)c3c2)cn1 [Example 335, 7-{6-[(ethylcarbamoyl)amino]-4-[4-(trifluoromethyl)-1,3-thiazol-2-yl]pyridin-3-yl}-N-methyl-1-(3-methylbutyl)-4-oxo-1,4-dihydroquinoline-3-carboxamide] | 107 |
| CCNC(=O)Nc1cc(-c2nc(C(F)(F)F)cs2)c(-c2ccc3c(c2)c(=O)c(C(=O)N2CCN(S(=O)(=O)N(C)C)CC2)cn3C2CN(C)C2)cn1 [Example 165, 4-(6-(6-(3-ethylureido)-4-(4-(trifluoromethyl)thiazol-2-yl)pyridin-3-yl)-1-(1-methylazetidin-3-yl)-4-oxo-1,4-dihydroquinoline-3-carbonyl)-N,N-dimethylpiperazine-1-sulfonamide] | 109 |
| CCCn1cc(C(=O)NCCN2CCOCC2)c(=O)c2ccc(-c3cnc(NC(=O)NCC)cc3-c3nc(C(F)(F)F)cs3)cc21 [Example 351, 7-{6-[(ethylcarbamoyl)amino]-4-[4-(trifluoromethyl)-1,3-thiazol-2-yl]pyridin-3-yl}-N-[2-(morpholin-4-yl)ethyl]-4-oxo-1-propyl-1,4-dihydroquinoline-3-carboxamide] | 95 |
| CCCn1cc(C(=O)O)c(=O)c2ccc(-c3cnc(NC(=O)NCC)cc3-c3nc(C(F)(F)F)cs3)cc21 [Example 27, 7-{6-[(ethylcarbamoyl)amino]-4-[4-(trifluoromethyl)-1,3-thiazol-2-yl]pyridin-3-yl}-4-oxo-1-propyl-1,4-dihydroquinoline-3-carboxylic acid] | 99 |
| CCNC(=O)Nc1cc(-c2nc(C(F)(F)F)cs2)c(-c2ccc3c(=O)c(C(=O)NCCO)cn(Cc4ccccc4)c3c2)cn1 [Example 354, 1-Benzyl-7-{6-[(ethylcarbamoyl)amino]-4-[4-(trifluoromethyl)-1,3-thiazol-2-yl]pyridin-3-yl}-N-(2-hydroxyethyl)-4-oxo-1,4-dihydroquinoline-3-carboxamide] | 98 |
| CCNC(=O)Nc1cc(-c2nc(CC)cs2)c(-c2ccc3c(c2)c(=O)c(C(=O)NC)cn3CC)cn1 [Example 37, 1-ethyl-6-(4-(4-ethylthiazol-2-yl)-6-(3-ethylureido)pyridin-3-yl)-N-methyl-4-oxo-1,4-dihydroquinoline-3-carboxamide] | 96 |
| CCNC(=O)Nc1cc(-c2nc(C(F)(F)F)cs2)c(-c2ccc3c(=O)c(C(=O)O)c[nH]c3c2)cn1 [Example 23, 7-(6-(3-Ethylureido)-4-(4-(trifluoromethyl)thiazol-2-yl)pyridin-3-yl)-4-oxo-1,4-dihydroquinoline-3-carboxylic acid] | 101 |
| CCNC(=O)Nc1cc(-c2nc(C(F)(F)F)cs2)c(-c2ccc3c(c2)c(=O)c(C(=O)O)cn3[C@H]2CCCN(CCO)C2)cn1 [Example 291, (S)-6-(6-(3-ethylureido)-4-(4-(trifluoromethyl)thiazol-2-yl)pyridin-3-yl)-1-(1-(2-hydroxyethyl)piperidin-3-yl)-4-oxo-1,4-dihydroquinoline-3-carboxylic acid] | 107 |
| CCNC(=O)Nc1cc(-c2nc(C(F)(F)F)cs2)c(-c2ccc3c(c2)c(=O)c(C(=O)NCCO)cn3Cc2noc(C3CC3)n2)cn1 [Example 329] | 97 |
| CCNC(=O)Nc1cc(-c2nc(C(F)(F)F)cs2)c(-c2ccc3c(=O)c(C(=O)NC)cn(Cc4ccccc4)c3c2)cn1 [Example 353, 1-Benzyl-7-{6-[(ethylcarbamoyl)amino]-4-[4-(trifluoromethyl)-1,3-thiazol-2-yl]pyridin-3-yl}-N-methyl-4-oxo-1,4-dihydroquinoline-3-carboxamide] | 99 |
| CCNC(=O)Nc1cc(-c2nc(C(F)(F)F)cs2)c(-c2ccc3c(c2)c(=O)c(C(=O)O)cn3C(C)CN(C)C)cn1 (stereo not shown) [Example 126, 1-(1-(dimethylamino)propan-2-yl)-6-(6-(3-ethylureido)-4-(4-(trifluoromethyl)thiazol-2-yl)pyridin-3-yl)-4-oxo-1,4-dihydroquinoline-3-carboxylic acid] | 117 |
| CC(C)NC(=O)Nc1cc(-c2nc(C(F)(F)F)cs2)c(-c2ccc3c(c2)c(=O)c(C(=O)NCCO)cn3CCN2CCN(C)CC2)cn1 [Example 212] | 94 |
| CCCNC(=O)Nc1cc(-c2nc(C(F)(F)F)cs2)c(-c2ccc3c(c2)c(=O)c(C(=O)N2CCN(S(=O)(=O)N(C)C)CC2)cn3CCN(C)C)cn1 [Example 154, 4-(1-(2-(dimethylamino)ethyl)-4-oxo-6-(6-(3-propylureido)-4-(4-(trifluoromethyl)thiazol-2-yl)pyridin-3-yl)-1,4-dihydroquinoline-3-carbonyl)-N,N-dimethylpiperazine-1-sulfonamide] | 107 |
| CCNC(=O)Nc1cc(-c2nc(C(F)(F)F)cs2)c(-c2ccc3c(c2)c(=O)c(C(=O)N2CCN(S(C)(=O)=O)CC2)cn3C2CN(C)C2)cn1 [Example 163, 1-ethyl-3-(5-(1-(1-methylazetidin-3-yl)-3-(4-(methylsulfonyl)piperazine-1-carbonyl)-4-oxo-1,4-dihydroquinolin-6-yl)-4-(4-(trifluoromethyl)thiazol-2-yl)pyridin-2-yl)urea] | 106 |
| CCNC(=O)Nc1cc(-c2nc(C(F)(F)F)cs2)c(-c2ccc3c(c2)c(=O)c(C(=O)O)cn3CCCO)cn1 [Example 320, 6-(6-(3-Ethylureido)-4-(4-(trifluoromethyl)thiazol-2-yl)pyridin-3-yl)-1-(3-hydroxy-propyl)-4-oxo-1,4-dihydro-quinoline-3-carboxylic acid] | 98 |
| CCNC(=O)Nc1cc(-c2nc(C(F)(F)F)cs2)c(-c2ccc3c(=O)c(C(=O)NCCN(C)C)cn(CCC(C)C)c3c2)cn1 [Example 338, N-[2-(dimethylamino)ethyl]-7-{6-[(ethylcarbamoyl)amino]-4-[4-(trifluoromethyl)-1,3-thiazol-2-yl]pyridin-3-yl}-1-(3-methylbutyl)-4-oxo-1,4-dihydroquinoline-3-carboxamide] | 99 |
| CCNC(=O)Nc1cc(-c2nc(C(F)(F)F)cs2)c(-c2ccc3c(c2)c(=O)c(C(=O)O)cn3C2CCCN(C)C2)cn1 (stereo not shown) [Example 311, 6-(6-(3-ethylureido)-4-(4-(trifluoromethyl)thiazol-2-yl)pyridin-3-yl)-1-(1-methylpiperidin-3-yl)-4-oxo-1,4-dihydroquinoline-3-carboxylic acid] | 100 |
| CCNC(=O)Nc1cc(-c2nc(CC)cs2)c(-c2ccc3c(c2)c(=O)c(C(=O)O)cn3CC)cn1 [Example 13, 1-ethyl-6-(6-(3-ethylureido)-4-(4-ethylthiazol-2-yl)pyridin-3-yl)-4-oxo-1,4-dihydroquinoline-3-carboxylic acid] | 98 |
| CCNC(=O)Nc1cc(-c2nc(C(F)(F)F)cs2)c(-c2ccc3c(c2)c(=O)c(C(=O)O)cn3CC2CCN(CC)C2)cn1 (stereo not shown) [Example 305, 1-((1-ethylpyrrolidin-3-yl)methyl)-6-(6-(3-ethylureido)-4-(4-(trifluoromethyl)thiazol-2-yl)pyridin-3-yl)-4-oxo-1,4-dihydroquinoline-3-carboxylic acid] | 103 |
